Patent US8592161B2, “Mutational profiles in HIV-1 protease correlated with phenotypic drug resistance” (Janssen R&D Ireland, priority 2002, dated 2013)

How the values were obtained:
Assay in all cases: In vitro antiviral activity in acutely infected MT4 cells, selected strain
Assay type in all cases: cell-based
[1] = system: HIV-1/LAI strain selected with Comp 1 (200 nM, 328 days), protease S37N R41S K70E; details: for EC50: Human immunodeficiency virus 1, Table 2, strain S37N R41S K70E (Comp 1 200 nM, 328 days), read-out: median EC50; for median FC (fold change in EC50 as compared to wild type): Table 2, strain S37N R41S K70E (Comp 1 200 nM, 328 days)
Procedure: (§1) Determination of the antiviral activity of a compound was done as described in Pauwels R. et al. (J Virol Methods 1988; 20(4):309-21). Various concentrations of the test compounds were brought into each well of a flat-bottom microtiter plate. Subsequently, HIV and MT4 cells were added to a final concentration of 200-250 50% cell culture infectious doses (CCID50)/well and 30,000 cells/well, respectively. After 5 days of incubation (37° C., 5% CO2), the cytopathic effect of the replicating virus was determined by the tetrazolium colorimetric MTT method. The dose protecting 50% of the cells from virus cytopathic effect was defined as the EC50, while the dose achieving 90% protection was defined as the EC90.
(§2) MT4-LTR-EGFP cells were infected at a multiplicity of infection (MOI) of 0.01 to 0.001 CCID50/cell in the presence of inhibitor. The starting concentration of the inhibitor was two to tee times the EC50, a suboptimal concentration. The cultures were sub-cultivated and scored microscopically on virus-induced fluorescence and cytopathicity every 3-4 days. The cultures were sub-cultivated in the presence of the same compound concentration until signs of virus replication were observed. The escaping virus was further cultivated in the presence of the same inhibitor concentration in order to enrich the population in resistant variants. If full virus breakthrough was observed the supernatant was collected and stored (new virus strain). Afterwards, the same virus was challenged with a higher compound concentration in order to select variants able to grow in the presence of as high as possible inhibitor concentrations. From the new viruses, a virus stock was grown in the absence of inhibitor.
(§3) In vitro drug selection experiments starting from wild-type HIV-1 under pressure of compound 1, compound 2, and Nelfinavir (NFV) have been performed. Tables 1, 2, 3, 4, and 5 show the genotypic and phenotypic characterization of the selected strains.

[2] = system: HIV-1/LAI strain selected with Compound 2 (100 nM), protease R41I; Table 3; details: Human immunodeficiency virus 1, R41I strain selected with Compound 2 100 nM (head lists 116, 200, 264 days; assignment unclear), read-out: median EC50
Procedure: as §1, §2, §3

[3] = system: HIV-1/LAI strain selected with Compound 1 (30 nM, 45 days), protease R41T; details: for EC50: Human immunodeficiency virus 1, Table 1, strain R41T (Compound 1 30 nM, 45 days), read-out: median EC50; for median FC (fold change in EC50 as compared to wild type): Table 1, strain R41T (Compound 1 30 nM, 45 days)
Procedure: as §1, §2, §3

[4] = system: HIV-1/LAI strain selected with NFV (3000 nM, 69 days), protease L10F D30N M46I V77I I85V/I N88D/N; details: for EC50: Human immunodeficiency virus 1, Table 5, strain L10F D30N M46I V77I I85V/I N88D/N (NFV 3000 nM, 69 days), read-out: median EC50; for median FC (fold change in EC50 as compared to wild type): Table 5, strain L10F D30N M46I V77I I85V/I N88D/N (NFV 3000 nM, 69 days)
Procedure: as §1, §2, §3

[5] = system: HIV-1/LAI strain selected with NFV (9000 nM, 140 days), protease L10F D30N R41R/K K45I/K M46I V77I I84V N88D; details: for EC50: Human immunodeficiency virus 1, Table 5, strain L10F D30N R41R/K K45I/K M46I V77I I84V N88D (NFV 9000 nM, 140 days), read-out: median EC50; for median FC (fold change in EC50 as compared to wild type): Table 5, strain L10F D30N R41R/K K45I/K M46I V77I I84V N88D (NFV 9000 nM, 140 days)
Procedure: as §1, §2, §3

[6] = system: HIV-1/LAI strain selected with NFV (1000 nM, 35 days), protease D30N M46I; details: for EC50: Human immunodeficiency virus 1, Table 5, strain D30N M46I (NFV 1000 nM, 35 days), read-out: median EC50; for median FC (fold change in EC50 as compared to wild type): Table 5, strain D30N M46I (NFV 1000 nM, 35 days)
Procedure: as §1, §2, §3

| Structure (SMILES) | EC50 [1] | median FC (fold change in EC50 as compared to wild type) [1] | EC50 [2] | EC50 [3] | median FC (fold change in EC50 as compared to wild type) [3] | EC50 [4] | median FC (fold change in EC50 as compared to wild type) [4] | EC50 [5] | median FC (fold change in EC50 as compared to wild type) [5] | EC50 [6] | median FC (fold change in EC50 as compared to wild type) [6] |
| --- | --- | --- | --- | --- | --- | --- | --- | --- | --- | --- | --- |
| CC(C)CN(C[C@@H](O)[C@H](Cc1ccccc1)NC(=O)O[C@H]1CCOC1)S(=O)(=O)c1ccc(N)cc1 [Amprenavir] | 15 nM | 1 | 14 nM | 38 nM | 1 | 59 nM | 3 | 190 nM | 10 | 28 nM | 1 |
| CC(C)(C)NC(=O)[C@@H]1CN(Cc2cccnc2)CCN1C[C@@H](O)C[C@@H](Cc1ccccc1)C(=O)N[C@H]1c2ccccc2C[C@H]1O [Indinavir] | 5.5 nM | 0.5 | 19 nM | 33 nM | 1 |  |  | 28 nM | 2 | 7.9 nM | 1 |
| Cc1c(O)cccc1C(=O)N[C@@H](CSc1ccccc1)[C@H](O)CN1C[C@H]2CCCC[C@H]2C[C@H]1C(=O)NC(C)(C)C [Nelfinavir] | 1.9 nM | 0.1 | 16 nM | 32 nM | 1 |  |  | 6800 nM | 200 | 330 nM | 9 |
| CC(C)(C)NC(=O)[C@@H]1C[C@@H]2CCCC[C@@H]2CN1C[C@@H](O)[C@H](Cc1ccccc1)NC(=O)[C@H](CC(N)=O)NC(=O)c1ccc2ccccc2n1 [Saquinavir] | 4 nM | 1 |  | 30 nM | 4 | 2.5 nM | 0 | 34 nM | 6 | 1.8 nM | 0 |
